Entries after “also recorded” stand apart in the source; their conditions may differ.
Key:
J20 mouse model of AD = assay: Morris water maze in J20 mouse model of AD; type: in vivo, mice; conditions: for escape latencies in the hidden platform phase: 4-week treatment, 15 mg/kg/day orally, 20 month old J20 mice, data not shown; for MWM performance, escape latencies in the invisible platform phase / percentage of time spent in the right quadrant (memory retention): 10 weeks of treatment; for MWM performance, escape latencies in the invisible platform phase: 15 mg/Kg orally once daily, 21-22 month-old J20 mice, vs saline; for percentage of time spent in the right quadrant (memory retention): platform removed, days 7 and 9, 15 mg/Kg, J20 mice, randomness = 25%
Experimental: Transgenic mice overexpressing human amyloid precursor protein (hAPP) with the Swedish (K670N/M671L) and Indiana (V717F) familial AD mutations under control of the PDGF β-chain promoter were used (J20 line) (Mucke et al, 2000). The mice were on an inbred C57BL/6J genetic background. […] Results were compared with those obtained from age-matched negative littermates (controls). To test the effect of the PDE5 inhibitors in cognition capacity related to aging, a second treatment was carried out using 10-12 month-old non-transgenic (wild type) mice on an inbred C57/B6xSJL genetic background. […] The MWM test was used to evaluate spatial memory as previously described (Hsiao et al., 1996; Reed et al., 2010; Ricobaraza et al., 2009). After treatments, groups of animals underwent spatial reference learning and memory testing in the MWM. The water maze was a circular pool (diameter 1.2 m) filled with water maintained at 20 °C and made opaque by the addition of non-toxic white paint. Mice were trained for three consecutive days (8 trials/day) swimming to a raised platform (visible-platform). No distal visible cues were present during this phase. The same platform location was used for all visible-platform sessions and was changed for the invisible-platform training (submerged 1 cm beneath the surface) conducted over […] (4 trials/day) with all visible distal cues present in this phase. In both visible- and hidden-platform versions, mice were placed pseudo-randomly in selected locations, facing toward the wall of the pool to eliminate the potentially confounding contribution of extramaze spatial cues. Each trial was terminated when the mouse reached the platform or after 60 seconds, whichever came first. To test the retention, three probe trials were performed at the beginning of 4th, 7th, and the last day of the test (day 9). In the probe trials the platform was removed from the pool, and the percentage of time spent in the quadrant where the platform was previously set was recorded. All trials were monitored by a camera above the center of the pool connected to a SMART-LD program (Panlab S.L., Barcelona, Spain) for subsequent analysis of escape latencies, swimming speed, path length and percent time spent in each quadrant of the pool during probe trials. All experimental procedures were performed blind to groups.

pAkt = assay: Western blot of pAkt in hippocampus of J20 mice; type: in vivo; conditions: J20 mice treated for 10 weeks, vs saline
Experimental: (§1) Results were compared with those obtained from age-matched negative littermates (controls). To test the effect of the PDE5 inhibitors in cognition capacity related to aging, a second treatment was carried out using 10-12 month-old non-transgenic (wild type) mice on an inbred C57/B6xSJL genetic background.
(§2) Twenty four hours after the fear conditioning test, animals (n=5, per group) were sacrificed and the brains removed for biochemical studies. The cortex and hippocampus were dissected, homogenized, and processed as described below for subsequent western blot analysis. […]
(§3) Total tissue homogenates were obtained by homogenizing the hippocampus in a cold lysis buffer with protease inhibitors (0.2 M NaCl, 0.1 M HEPES, 10% glycerol, 200 mM NaF, 2 mM Na4P2O7, 5 mM EDTA, 1 mM EGTA, 2 mM DTT, 0.5 mM PMSF, 1 mM Na3VO4, 1 mM benzamidine, 10 µg/ml leupeptin, 400 U/ml aprotinin), centrifuged at 14,000 x g 4 °C for 20 minutes and the supernatant was aliquoted and stored at -80 °C. Total protein concentrations were determined using the BioRad Bradford protein assay (BioRad Laboratories).
(§4) Protein samples were mixed with an equal volume of 2 x Laemmli sample buffer, resolved onto SDS-polyacrylamide gels and transferred to nitrocellulose membrane. […] Quantity OneTM software v.4.6.3 (Bio-Rad) was used for quantification.

synaptophysin = assay: Western blot of synaptophysin in hippocampus of J20 mice; type: in vivo; conditions: J20 mice treated for 10 weeks
Experimental: as §1, §2, §3, §4

AD mouse models = conditions: Puzzo et al., 2009; cited from earlier work
[1] = EMEA scientific discussion for Cialis (WC500026314); cited from earlier work
[2] = system: rat model of embolic stroke; conditions: Zhang et al. (2006); cited from earlier work

Row | SMILES | escape latencies in the hidden platform phase (J20 mouse model of AD) | MWM performance, escape latencies in the invisible platform phase (J20 mouse model of AD) | percentage of time spent in the right quadrant (memory retention) (J20 mouse model of AD) | level of pAkt (pAkt) | expression levels of synaptophysin (synaptophysin) | effect on memory in AD mouse models (AD mouse models) | observed in the central nervous system [1] | MWM performance, escape latencies in the invisible platform phase (J20 mouse model of AD; 15 mg/kg) | neurological functional recovery [2]
1 | CCCc1nn(C)c2c(=O)[nH]c(-c3cc(S(=O)(=O)N4CCN(C)CC4)ccc3OCC)nc12 [sildenafil] | no significant differences were detected | markedly improves the performance | higher than 25% | reduction was reverted | recovered the low expression levels | efficacious drug in improving memory |  |  | 
2 | CN1CC(=O)N2[C@H](c3ccc4c(c3)OCO4)c3[nH]c4ccccc4c3C[C@@H]2C1=O [tadalafil, (6R-trans)-6-(1,3-benzodioxol-5-yl)-2,3,6,7,12,12a-hexahydro-2-methyl-pyrazino [1',2':1,6] pyrido [3,4-b]indole-1,4-dione] | no significant differences were detected |  | higher than 25% | reduction was reverted; also recorded: higher than that of sildenafil | recovered the low expression levels | no effect was demonstrated | not observed | even better than those of non-transgenic mice; also recorded: cognitive improvement was higher in the group of tadalafil than in the group of sildenafil; also recorded: markedly improves the performance | improves neurological functional recovery

— patent EP2535049A1 (Proyecto de Biomedicina Cima, S.L., priority 2011, dated 2012)
